The source of these data is US20240041842A1, “PHARMACEUTICAL COMPOSITION FOR INHIBITING CANCER METASTASIS” (INDUSTRY-ACADEMIC COOPERATION FOUNDATION, YONSEI UNIVERSITY, priority 2021, published 2024).

The structures appear in SMILES notation.

In test [1] the test system is Snail. Briefly: Western blot of Snail protein. It counts as cell-based, human. The following applies: for Snail expression levels: BAPTA or calmidazolium for 1 hour; for Snail: BMS303141 24 hours, NDI-091143 24 hours, SB-204990 2 hours; for Snail expression: H2O2 or NAC for 6 hours. How it is done:
(§1) Cells were harvested, washed with PBS, and lysed on ice with RIPA buffer containing protease and phophatase inhibitor cocktail (GenDEPOT). After 15 minutes of incubation, the cell lysates were centrifuged at 15,000 rpm at 4° C. for 10 minutes. Protein concentration was measured by Bradford assay (Bio-rad, 500-0006). Equal amounts of total protein were placed on an SDS gel electrophoresis and transferred to a PVDF membrane (Bio-rad). The membrane was blocked with 5% skim milk for 1 hour at room temperature and incubated overnight at 4° C. with primary antibody in a buffer containing 0.1% Tween-20. Subsequently, the membrane was washed three times with Tween-PBS buffer and incubated for 1 hour at room temperature using a secondary antibody diluted in blocking buffer containing 0.1% Tween-20. Subsequently, the membrane was washed three times for 10 minutes each using Tween-TBS. Densitometry of Western blots was measured using ImageJ software.
[…] For autophagy activation, cells were'treated with 2 μM rapamycin (Selleckchem, S1039) for 5 hours. Modulation of intracellular ROS was performed with N-acetyl-cysteine (10 mM) (Sigma, A7250), hydrogen peroxide solution (100 μM to 200 μM) (Sigma, 216763), or CDDO-ME NRF2 activator (50 nM, 100 nM) (Sellckchem, S8078) for 4 to 24 hours. Intercellular calcium signal control was performed for 1 hour using BAPTA-AM (20 μM) (Sigma, A1076) or Calmidazolium Chloride (2.5 μM) (Sigma, C3930). […] For TFEB protein phosphorylation, tacrolimus (1 μM) (Selleckchem, S5003) was treated for 1 hour. […] During siRNA treatment, each siRNA was treated to a concentration of 40 to 50 nM and treated together with Lipofectamine RNAiMax (Thermo Fisher Scientific, 13778150) for transformation, and were used for experiments 48 to 72 hours later. For cDNA treatment, each cDNA was treated to a concentration of 1 to 2 μg in a 6-well plate and treated with Lipofectamine 2000 (Thermo Fisher Scientific, 11668019) for transformation, and were used for experiments 24 hours later.
A general note: Immunoblotting shows a protein as a band on a membrane.

A further test deals with phospho-AMPK T172. Briefly: Western blot of phospho-AMPK T172. It counts as cell-based, human. The following applies: HBEC-KL cell line; for AMPK phosphorylation: BAPTA or calmidazolium for 1 hour; for AMPK phosphorylation at T172: H2O2 or NAC for 6 hours. How it is done: as §1
For inhibition of autophagy, cells were treated with 50 μM chloroquine (Sigma, C6628) for 12 to 24 hours. For autophagy activation, cells were'treated with 2 μM rapamycin (Selleckchem, S1039) for 5 hours. Modulation of intracellular ROS was performed with N-acetyl-cysteine (10 mM) (Sigma, A7250), hydrogen peroxide solution (100 μM to 200 μM) (Sigma, 216763), or CDDO-ME NRF2 activator (50 nM, 100 nM) (Sellckchem, S8078) for 4 to 24 hours. Intercellular calcium signal control was performed for 1 hour using BAPTA-AM (20 μM) (Sigma, A1076) or Calmidazolium Chloride (2.5 μM) (Sigma, C3930). C646 (25 μM) (Sigma, SML0002), curcumin (10 μM) (Selleckchem, S1848) CBP/p300 inhibitor or vorinostat ([…]) (Selleckchem, S1047) HDAC inhibitor was treated for 24 hours to modulate snail protein acetylation. and CHIR99021 GSK3b inhibitor (3 μM) (Sigma, SML1046) was treated for 24 hours to control Snail protein phosphorylation. For TFEB protein phosphorylation, tacrolimus (1 μM) (Selleckchem, S5003) was treated for 1 hour. […] During siRNA treatment, each siRNA was treated to a concentration of 40 to 50 nM and treated together with Lipofectamine RNAiMax (Thermo Fisher Scientific, 13778150) for transformation, and were used for experiments 48 to 72 hours later. For cDNA treatment, each cDNA was treated to a concentration of 1 to 2 μg in a 6-well plate and treated with Lipofectamine 2000 (Thermo Fisher Scientific, 11668019) for transformation, and were used for experiments 24 hours later.

Another test relates to HBEC-KL cell line. Briefly: Matrigel invasion assay, HBEC-KL cell line. The test is classed as cell-based, human. The note with it: HBEC-KL; 50 uM BMS303141 24 hours, 1 um NDI-091143 24 hours, 20 uM SB-204990 2 hours. As to the method:
For the 2D invasion assay, the inserts were pre-coated with 300 μg/ml Matrigel (Coming, 354234). After staining with […] dye (Bio-Rad, 1450013), 1×10^5 live cells per 8-um-pore cell-culture insert (Costar. 3422) were seeded in 0.5% ACL medium. 10% ACL medium was added to the outside of the insert. In the case of lung cancer and pancreatic cancer cell lines, after inoculation in 1% RPMI medium, 20% RPMI medium was added to the outside of the insert. Plates were incubated for 24 hours at 37° C. After incubation, the insert was fixed with 3.7% PFA, washed, stained with 0.4% crystal violet, and the upper membrane was washed and dried.

Another test relates to A549-luc cells. Briefly: A549-luc tail vein injection metastasis model. The test is classed as in vivo. The following applies: nude mice; 100 mg/kg, qd p.o 20 consecutive days. As to the method: FIG. 13E illustrates role of STO-609 on cancer metastasis in an A549-luc tail vein injection model. After intravenous injection of A549-luc cells into nude mice, vehicle or STO-609 (25 mg/kg and 100 mg/kg qd) was injected for 28 days starting one day after the injection. A picture taken of a bioluminescent image when 4 weeks have elapsed after injection is shown (above). Analysis results of the total metastasis burden by photonic flux are shown (below). FIG. 13H illustrates the role of BMS303141 on cancer metastasis in an A549-luc tail vein injection model. A549-luc cells were intravenously injected into nude mice, and then vehicle or BMS303141 (100 mg/kg q.d.) was injected for 20 days starting one day after the injection. A bioluminescence image when 3 weeks have elapsed after injection is shown. 7- to 9-week-old BALB/c-nu Sic mice were obtained from SLC, Inc. (Shizuoka, Japan) and used, A549-luc cells (#JCRB1414) or SNAI1 shRNA-mediated knockdown A549-luc cells were injected at 3-4.5×10^6 cells through the tail vein of mice. After 3 to 4 weeks, metastasis was monitored by bioluminescence imaging analysis. More specifically, after injecting D-luciferin (75 mg/kg) (PerkinElmer, 122799) into the abdominal cavity of the mouse, images were obtained using an IVIS imaging system (IVIS 200, PerkinElmer, Waltham, MA, USA) in the supine position. Lung tissue was obtained for histopathological analysis. Images were analyzed using commercially available software (ImageScope; Aperio Technologies). In the STO-609 efficacy test, STO-609 (25 mg, 100 mg/kg/day) was orally administered to mice on the day of injection. In the BMS303141 efficacy test, BMS303141 (100 mg/kg/day) was orally administered to mice on the day of injection.

The subject of test [2] is Snail. Briefly: Immunoprecipitation-immunoblot of phosphorylated/acetylated or K48 polyubiquitinated Snail in A549 cells. The test is classed as cell-based, human. The note with it: 25 uM C646 or 3 uM SAHA. How it is done: FIG. 9K illustrates the immunoprecipitation-immunoblot result of phosphorylated/acetylated or K48 polyubiquitinated Snail assay after transfection of wild-type Snail (pFLAG-Snail WT) or acetylation-defective Snail mutant (pFLAG-SnailK146R) into A549 cells and/or treatment with 25 uM C646.
FIG. 9L illustrates the immunoprecipitation-immunoblot results of the polyubiquitinated Snail assay after transfection of HA-ubiquitin and wild-type Snail (pFLAG-Snail WT) or acetylation-defective Snail mutant (pFLAG-SnailK146R) into A549 cells and/or treatment with 25 uM C646 for 2 hours (left) and/or treatment of 3 uM SAHA for 5 hours (right).
(§2) For immunoprecipitation, equal amounts of lysate and Co-IP buffer (40 mM HEPES, pH 7.4, 120 mM NaCl, 2 mM EDTA, 0.3% CHAPS (Sigma, 10810118001), 10 mM pyrophosphate (Sigma, 221368), 10 mM glycerophosphate (Sigma, G9422), 50 mM NaF, phosphatase and protease inhibitor mixture) were mixed. Cell lysates (1 μg protein) were incubated overnight at 4° C. on anti-FLAG® M2 Affinity Gel (Sigma, A2220) or anti-acetyl-lysine antibody coated agarose (ImmuneChem Pharmaceuticals, ICP0388). The immunoprecipitate was then washed three times in IP buffer, and the immunoprecipitated complex was dissolved and separated by boiling in IP buffer for 5 minutes.

A further test has as its system TFEB. Briefly: Western blot / immunoprecipitation-immunoblot of TFEB (acetylated, phosphorylated, total). The test is classed as cell-based, human. The following applies: HBEC-KL; 1 uM FK506, 1 hour. As to the method:
FIG. 11J illustrates a diagram of immunoblot results of the […] a control (left), and the immunoprecipitation-immunoblot result of TFEB acetylated HBEC-KL cells under the same conditions (right) is also shown,
as §1, §2

The next test relates to TFEB (CLEAR network). Briefly: CLEAR motif-driven luciferase reporter assay. The test is classed as cell-based, human. The following applies: HBEC-KL; 1 uM FK506, 1 hour. As to the method:
To compare the TFEB reporter activity with other cell lines (HBEC30KT, HBEC-K, and HBEC-KL), the pGL4.70 5× CLEAR Rluc and pSt4.14 Fluc vectors were transiently co-transfected and normalized luciferase activity was measured in Dual-Measured by Luciferase® Reporter Assay System (Promega, E1910),

Another test concerns LC3. Briefly: Autophagic flux (LC3 Western blot, mRFP-GFP-LC3 lysosomal delivery assay). The test is classed as cell-based, human. The following applies: HBEC-KL cell line; NAC or 50 uM STO-609, 24 hours. As to the method: as §1, with “Representative GFP-LC3, RFP-LC3 and overlapping images are shown. In addition, red puncta (mRFP+/GFP−) and yellow puncta (mRFP+/GFP+) per cell were quantified and graphed (n=15 cells/treatment). Cells” for “Cells”

[3] abbreviates: HBEC-KL cell line, 20 nM bortezomib.

For the molecule `O=C(O)CN(CC(=O)O)c1ccccc1OCCOc1ccccc1N(CC(=O)O)CC(=O)O` [BAPTA], the Snail expression levels entry in the test with Snail [1] (HBEC-KL cell line) is listed as “reduced”. Also, the AMPK phosphorylation entry with phospho-AMPK T172 is reported as “reduced”.

Consider `COc1ccc(-c2ccccc2)cc1NS(=O)(=O)c1cc(Cl)cc(Cl)c1O` [BMS303141], for which, in the test with HBEC-KL cell line, the Matrigel invasion entry was “reduced”. Besides, in the test on Snail [1] (HBEC-KL), the Snail entry is recorded as “reduced”. Also, the “total degree of metastasis” value with A549-luc cells was “reduced”.

Regarding `CC1=NN(c2ccc(C(=O)O)cc2)C(=O)/C1=C\c1ccc(-c2cc(C)c(C)cc2[N+](=O)[O-])o1` [C646], in the test on Snail [2] (pFLAG-Snail WT), the “K48 polyubiquitination of wild-type Snail” value was “increased” and the “phosphorylation of wild-type Snail” value was “increased”. The “phosphorylation and acetylation of K146R Snail” value in the test with Snail [2] (pFLAG-SnailK146R) is “did not affect”.

Take `COC(=O)[C@]12CCC(C)(C)C[C@H]1[C@H]1C(=O)C=C3[C@@]4(C)C=C(C#N)C(=O)C(C)(C)[C@@H]4CC[C@@]3(C)[C@]1(C)CC2` [CDDO-ME]: the “level of phospho-AMPK T172” value with phospho-AMPK T172 (CDDO-ME for 24 hours) was “reduced”.

As to `C=CC[C@@H]1/C=C(\C)C[C@H](C)C[C@H](OC)[C@H]2O[C@@](O)(C(=O)C(=O)N3CCCC[C@H]3C(=O)O[C@H](/C(C)=C/[C@@H]3CC[C@@H](O)[C@H](OC)C3)[C@H](C)[C@@H](O)CC1=O)[C@H](C)C[C@@H]2OC` [FK506, tacrolimus], the phospho-TFEB result with TFEB is “increasing”. The CLEAR activity entry with TFEB (CLEAR network) was “decreased”.

As for `OO` [H2O2, hydrogen peroxide], the Snail expression entry in the test on Snail [1] (HBEC-KL cell line) is recorded as “increased”. The “AMPK phosphorylation at T172” value in the test with phospho-AMPK T172 is “increased”.

As to `CC(=O)N[C@@H](CS)C(=O)O` [NAC, N-acetyl-cysteine], in the test with Snail [1] (HBEC-KL cell line), the Snail expression entry is on record as “decreased”. Further, the autophagic flux entry in the test with LC3 is “decreased”. In the test with phospho-AMPK T172, the “AMPK phosphorylation at T172” value is “decreased”.

For `COC(=O)c1cc(Cl)c(O)c(S(=O)(=O)Nc2cc(-c3ccccc3)c(F)cc2F)c1` [NDI-091143], the Matrigel invasion entry in the test on HBEC-KL cell line is given as “reduced”. Further, the Snail entry in the test on Snail [1] (HBEC-KL) is given as “reduced”.

`O=C(O)C[C@@]1(O)C[C@@H](CCCCCCc2ccc(Cl)cc2Cl)OC1=O` [SB-204990]: in the test on HBEC-KL cell line, the Matrigel invasion result is listed as “reduced”. Besides, in the test on Snail [1] (HBEC-KL), the Snail entry is “reduced”.

Consider `CC(C)C[C@H](NC(=O)[C@H](Cc1ccccc1)NC(=O)c1cnccn1)B(O)O` [bortezomib], for which, in the test on Snail [1] (setting [3]), the “reduction of Snail by STO-609, with bortezomib also treated” value is “restored” and the “reduction of Snail by chloroquine (CQ), with bortezomib also treated” value was “restored”. Besides, the “Snail reduction caused by the ACLY inhibitor, with Bortezomib” value in the test with Snail [1] (HBEC-KL, 20 nM bortezomib for 3 hours) was “restored”.

`Clc1ccc(C(c2ccc(Cl)cc2)n2cc[n+](CC(OCc3ccc(Cl)cc3Cl)c3ccc(Cl)cc3Cl)c2)cc1` (stereo not shown) [calmidazolium]: the Snail expression levels result with Snail [1] (HBEC-KL cell line) was “reduced”. Moreover, in the test on phospho-AMPK T172, the AMPK phosphorylation result is given as “reduced”.
